Laboratory results as given in ChEMBL document CHEMBL1201862, “PubChem BioAssay data set” (2004).
The source made the active and inactive calls.

Columns and labels:
[1] = biological target: T1, fMet-Leu-Phe receptor (Homo sapiens, UniProt P21462); test: formyl peptide receptor binders – dose response (AID 519); format: functional
T1 sequence (P21462 whole entry): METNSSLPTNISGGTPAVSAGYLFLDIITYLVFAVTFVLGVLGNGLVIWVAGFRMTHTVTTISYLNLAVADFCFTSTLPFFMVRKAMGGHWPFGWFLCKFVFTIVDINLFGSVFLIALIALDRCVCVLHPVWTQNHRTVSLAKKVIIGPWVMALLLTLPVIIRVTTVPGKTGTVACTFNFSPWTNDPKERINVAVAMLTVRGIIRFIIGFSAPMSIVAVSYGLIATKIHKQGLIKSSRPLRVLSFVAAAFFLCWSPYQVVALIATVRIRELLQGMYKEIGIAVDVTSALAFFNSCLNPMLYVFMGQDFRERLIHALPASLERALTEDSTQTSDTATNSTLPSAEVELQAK

[2] = biological target: Cytochrome P450 2D6 (Homo sapiens, UniProt P10635);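 further: CYP2D6 member of a cytochrome P450 panel assay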
[3] = biological target: Beta-galactosidase (Escherichia coli, UniProt Q8VNN2); test: Dose response counterscreen for EBI2 assay utilizing the enzyme, b-galactosidase.; format: functional
[4] = biological target: Albumin (Bos taurus, UniProt P02769); test: Counterscreen for inhibitors of T-cell receptor (TCR)-CD3 interaction: Fluorescence-based biochemical high throughput dose response assay to identify inhibitors of T-cell receptor (TCR)-CD3 interaction using a TAMRA-labeled BSA probe.; format: functional
[5] = biological target: T2, Aminopeptidase N (Plasmodium falciparum FcB1/Columbia, UniProt O96935); test: malaria alanyl aminopeptidase activity blockers – biochemical, fluorogenic H-Leu-NHMec substrate, 1536-well (AID 1445); design: species or system Plasmodium falciparum 3D7, 3D7
T2 sequence (O96935 whole entry): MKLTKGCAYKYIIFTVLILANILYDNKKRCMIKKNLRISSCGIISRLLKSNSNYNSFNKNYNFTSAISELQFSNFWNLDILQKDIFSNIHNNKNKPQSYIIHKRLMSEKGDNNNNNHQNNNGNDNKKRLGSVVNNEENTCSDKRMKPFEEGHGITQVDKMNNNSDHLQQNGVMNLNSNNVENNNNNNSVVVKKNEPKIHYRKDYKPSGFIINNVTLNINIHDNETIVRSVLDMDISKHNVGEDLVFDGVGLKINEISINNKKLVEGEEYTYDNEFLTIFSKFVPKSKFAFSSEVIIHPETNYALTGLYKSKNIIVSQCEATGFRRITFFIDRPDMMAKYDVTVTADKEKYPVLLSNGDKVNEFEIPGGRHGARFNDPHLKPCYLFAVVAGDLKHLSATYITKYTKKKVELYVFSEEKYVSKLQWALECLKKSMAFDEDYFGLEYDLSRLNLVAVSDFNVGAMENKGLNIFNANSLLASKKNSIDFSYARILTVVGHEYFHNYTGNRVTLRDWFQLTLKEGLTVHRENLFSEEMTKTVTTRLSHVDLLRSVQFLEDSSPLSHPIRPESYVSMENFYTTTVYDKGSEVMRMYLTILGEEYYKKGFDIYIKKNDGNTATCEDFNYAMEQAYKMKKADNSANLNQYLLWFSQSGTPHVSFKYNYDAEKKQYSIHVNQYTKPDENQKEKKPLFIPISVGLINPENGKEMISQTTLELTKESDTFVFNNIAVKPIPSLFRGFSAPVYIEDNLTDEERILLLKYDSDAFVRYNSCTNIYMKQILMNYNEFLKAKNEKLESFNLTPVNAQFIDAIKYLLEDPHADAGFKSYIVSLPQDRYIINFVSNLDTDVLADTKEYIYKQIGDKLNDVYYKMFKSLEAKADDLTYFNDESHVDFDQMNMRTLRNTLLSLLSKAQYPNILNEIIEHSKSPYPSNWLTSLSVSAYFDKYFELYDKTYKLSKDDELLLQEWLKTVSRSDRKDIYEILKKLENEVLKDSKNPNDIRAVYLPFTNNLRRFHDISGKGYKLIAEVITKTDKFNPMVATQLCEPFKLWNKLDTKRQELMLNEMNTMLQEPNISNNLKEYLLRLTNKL

[6] = biological target: Large T antigen (Simian virus 40, UniProt P03070); format: functional, Betapolyomavirus macacae;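 further: Confirmatory-stage PubChem screen for compounds that inhibit SV40 T antigen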
[7] = cells; format: functional, cell-based
[8] = biological target: T3, Trace amine-associated receptor 1 (Homo sapiens, UniProt Q96RJ0); test: Fluorescence-based cell-based high throughput dose response assay to identify agonists of the human trace amine associated receptor 1 (TAAR1).; format: functional
T3 sequence (Q96RJ0 whole entry): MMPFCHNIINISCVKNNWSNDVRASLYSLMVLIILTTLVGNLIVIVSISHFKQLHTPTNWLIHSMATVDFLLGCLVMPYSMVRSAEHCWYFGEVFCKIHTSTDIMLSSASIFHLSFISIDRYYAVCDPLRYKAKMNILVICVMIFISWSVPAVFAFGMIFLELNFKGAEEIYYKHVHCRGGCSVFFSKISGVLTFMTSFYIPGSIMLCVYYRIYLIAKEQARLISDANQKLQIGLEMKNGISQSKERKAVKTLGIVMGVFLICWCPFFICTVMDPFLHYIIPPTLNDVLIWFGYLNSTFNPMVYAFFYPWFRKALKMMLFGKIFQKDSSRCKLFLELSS

[9] = biological target: T3, Trace amine-associated receptor 1; test: Counterscreen for agonists of the human trace amine associated receptor 1 (hTAAR1): Fluorescence-based cell-based high throughput dose response assay to identify hTAAR1 agonist that also desensitize TAAR1 receptor response.; format: functional
[10] = cells; format: functional, cell-based; remark: listed apart in the source
[11] = biological target: T4, Methionyl-tRNA synthetase, putative (Trypanosoma brucei brucei, UniProt Q38C91); format: functional, Trypanosoma brucei brucei strain 927/4 GUTat10.1;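 further: Read-out by fluorescence polarization, run as a confirmatory high-throughput counterscreen; potency of MetRS inhibitors measured by reduced AMP formation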
T4 sequence (Q38C91 whole entry): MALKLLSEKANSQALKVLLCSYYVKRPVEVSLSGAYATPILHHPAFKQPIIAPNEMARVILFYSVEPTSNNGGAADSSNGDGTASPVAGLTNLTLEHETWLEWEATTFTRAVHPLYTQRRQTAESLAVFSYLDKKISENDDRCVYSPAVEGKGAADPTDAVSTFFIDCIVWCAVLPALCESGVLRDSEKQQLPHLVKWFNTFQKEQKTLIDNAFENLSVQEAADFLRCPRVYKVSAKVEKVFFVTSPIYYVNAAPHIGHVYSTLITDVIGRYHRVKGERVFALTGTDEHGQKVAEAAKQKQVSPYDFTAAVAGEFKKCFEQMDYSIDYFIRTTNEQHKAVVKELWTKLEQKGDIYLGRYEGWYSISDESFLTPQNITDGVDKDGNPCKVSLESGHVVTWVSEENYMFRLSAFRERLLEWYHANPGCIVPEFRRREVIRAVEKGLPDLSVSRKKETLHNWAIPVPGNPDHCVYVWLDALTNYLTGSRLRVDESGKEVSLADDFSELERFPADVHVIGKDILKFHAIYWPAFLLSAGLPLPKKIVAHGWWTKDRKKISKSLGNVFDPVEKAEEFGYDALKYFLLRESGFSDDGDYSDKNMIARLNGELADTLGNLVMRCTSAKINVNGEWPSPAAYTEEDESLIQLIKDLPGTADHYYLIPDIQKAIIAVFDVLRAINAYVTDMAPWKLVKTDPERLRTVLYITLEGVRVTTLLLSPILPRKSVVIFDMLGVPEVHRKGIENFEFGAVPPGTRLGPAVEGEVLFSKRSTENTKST

[12] = Counterscreen for inhibitors of Trypanosoma brucei methionyl tRNA synthetase (MetRS): Luminescence-based cell-based high throughput dose response assay to identify compounds that are cytotoxic to Jurkat human T lymphocyte cells.; format: functional
[13] = system: H9c2; test: cells; format: functional, cell-based; details: Rattus norvegicus, H9c2, Myocardium;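 further: confirmatory concentration-response retest of ultra-high-throughput screening hits for modulation of myocardial damage; cell death induced by hydrogen peroxide oxidative stress; compound pretreatment for 60 min then peroxide exposure for 2 h; potency is for protecting the cells against peroxide damage rather than for killing them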
[14] = potency of ADAM10 substrate cleavage blockers – biochemical, QFRET, dose response (AID 743254);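 further: ADAM10 enzyme with the DM2 quenched FRET peptide as substrate; EDANS fluorescence gain as the protease cuts the substrate; inhibitor potency against ADAM10 proteolytic activity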
[15] = biological target: Disintegrin and metalloproteinase domain-containing protein 17 (Homo sapiens, UniProt P78536); test: inhibition of ADAM17 substrate cleavage – biochemical, quenched FRET substrate, counter-screen for ADAM10 exosite inhibitor project, dose response (AID 743253)
Chain of Disintegrin and metalloproteinase domain-containing protein 17 (P78536 whole entry, the tested form may be a part): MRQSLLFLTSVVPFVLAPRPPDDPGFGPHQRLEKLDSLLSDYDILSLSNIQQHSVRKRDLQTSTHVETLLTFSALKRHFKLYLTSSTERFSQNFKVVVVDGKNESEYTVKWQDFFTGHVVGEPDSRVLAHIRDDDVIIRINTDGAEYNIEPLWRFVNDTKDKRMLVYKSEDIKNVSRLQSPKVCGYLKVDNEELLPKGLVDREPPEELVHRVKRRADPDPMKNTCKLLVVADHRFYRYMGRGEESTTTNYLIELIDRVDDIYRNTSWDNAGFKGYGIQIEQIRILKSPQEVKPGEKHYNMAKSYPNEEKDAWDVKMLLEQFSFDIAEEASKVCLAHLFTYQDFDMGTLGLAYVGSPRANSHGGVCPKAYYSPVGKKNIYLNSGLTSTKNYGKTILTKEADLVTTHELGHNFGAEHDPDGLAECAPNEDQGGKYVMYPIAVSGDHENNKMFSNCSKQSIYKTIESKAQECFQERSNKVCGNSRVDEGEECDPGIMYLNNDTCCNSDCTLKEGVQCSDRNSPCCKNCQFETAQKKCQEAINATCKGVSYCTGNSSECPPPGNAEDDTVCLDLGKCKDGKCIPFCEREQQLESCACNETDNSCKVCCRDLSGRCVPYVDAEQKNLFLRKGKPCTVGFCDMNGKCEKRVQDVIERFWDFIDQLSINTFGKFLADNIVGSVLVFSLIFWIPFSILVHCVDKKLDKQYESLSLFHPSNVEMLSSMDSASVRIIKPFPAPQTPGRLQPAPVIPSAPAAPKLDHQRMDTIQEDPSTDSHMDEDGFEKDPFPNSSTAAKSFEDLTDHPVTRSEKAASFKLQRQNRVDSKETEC

Chain of Beta-galactosidase (Q8VNN2 whole entry): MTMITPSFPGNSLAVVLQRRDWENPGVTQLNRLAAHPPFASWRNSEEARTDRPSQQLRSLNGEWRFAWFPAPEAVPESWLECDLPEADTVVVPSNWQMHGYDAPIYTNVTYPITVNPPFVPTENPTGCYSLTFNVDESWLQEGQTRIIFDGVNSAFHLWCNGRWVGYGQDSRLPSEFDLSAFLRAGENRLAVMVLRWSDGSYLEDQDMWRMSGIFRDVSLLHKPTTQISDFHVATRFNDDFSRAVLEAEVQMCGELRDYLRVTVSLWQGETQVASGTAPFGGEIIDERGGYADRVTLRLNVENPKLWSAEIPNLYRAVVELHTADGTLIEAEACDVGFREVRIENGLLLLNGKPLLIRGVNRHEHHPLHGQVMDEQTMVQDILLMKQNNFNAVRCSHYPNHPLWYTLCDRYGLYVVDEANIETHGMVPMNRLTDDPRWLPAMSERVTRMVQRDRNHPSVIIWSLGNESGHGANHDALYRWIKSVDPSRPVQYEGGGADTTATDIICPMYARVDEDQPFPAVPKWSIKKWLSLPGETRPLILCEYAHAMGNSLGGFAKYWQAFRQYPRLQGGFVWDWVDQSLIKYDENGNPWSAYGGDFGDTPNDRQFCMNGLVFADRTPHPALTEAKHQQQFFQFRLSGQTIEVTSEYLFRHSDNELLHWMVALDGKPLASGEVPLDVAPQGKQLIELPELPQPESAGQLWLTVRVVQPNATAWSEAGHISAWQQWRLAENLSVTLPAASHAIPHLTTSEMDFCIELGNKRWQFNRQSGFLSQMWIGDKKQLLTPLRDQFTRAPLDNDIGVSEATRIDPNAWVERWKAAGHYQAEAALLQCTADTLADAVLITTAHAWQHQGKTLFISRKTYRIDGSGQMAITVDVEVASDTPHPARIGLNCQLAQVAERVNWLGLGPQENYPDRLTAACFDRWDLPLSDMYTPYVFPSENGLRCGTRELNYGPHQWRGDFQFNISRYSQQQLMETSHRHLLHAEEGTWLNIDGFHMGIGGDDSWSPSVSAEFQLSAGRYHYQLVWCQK
Chain of Cytochrome P450 2D6 (P10635 whole entry): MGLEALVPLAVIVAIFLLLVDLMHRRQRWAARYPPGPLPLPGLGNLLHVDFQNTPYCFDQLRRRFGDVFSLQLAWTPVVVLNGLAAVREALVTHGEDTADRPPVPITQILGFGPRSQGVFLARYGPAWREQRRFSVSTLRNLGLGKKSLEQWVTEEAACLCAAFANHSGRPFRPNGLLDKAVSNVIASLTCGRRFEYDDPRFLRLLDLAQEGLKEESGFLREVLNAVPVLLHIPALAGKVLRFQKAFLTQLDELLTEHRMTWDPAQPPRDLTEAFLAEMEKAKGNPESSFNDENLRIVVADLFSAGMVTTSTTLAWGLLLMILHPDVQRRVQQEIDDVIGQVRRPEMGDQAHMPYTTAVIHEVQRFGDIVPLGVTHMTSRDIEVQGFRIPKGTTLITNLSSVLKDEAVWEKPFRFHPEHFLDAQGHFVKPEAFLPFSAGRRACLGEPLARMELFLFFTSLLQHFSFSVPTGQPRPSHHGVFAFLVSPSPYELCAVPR
Chain of Albumin (P02769 whole entry): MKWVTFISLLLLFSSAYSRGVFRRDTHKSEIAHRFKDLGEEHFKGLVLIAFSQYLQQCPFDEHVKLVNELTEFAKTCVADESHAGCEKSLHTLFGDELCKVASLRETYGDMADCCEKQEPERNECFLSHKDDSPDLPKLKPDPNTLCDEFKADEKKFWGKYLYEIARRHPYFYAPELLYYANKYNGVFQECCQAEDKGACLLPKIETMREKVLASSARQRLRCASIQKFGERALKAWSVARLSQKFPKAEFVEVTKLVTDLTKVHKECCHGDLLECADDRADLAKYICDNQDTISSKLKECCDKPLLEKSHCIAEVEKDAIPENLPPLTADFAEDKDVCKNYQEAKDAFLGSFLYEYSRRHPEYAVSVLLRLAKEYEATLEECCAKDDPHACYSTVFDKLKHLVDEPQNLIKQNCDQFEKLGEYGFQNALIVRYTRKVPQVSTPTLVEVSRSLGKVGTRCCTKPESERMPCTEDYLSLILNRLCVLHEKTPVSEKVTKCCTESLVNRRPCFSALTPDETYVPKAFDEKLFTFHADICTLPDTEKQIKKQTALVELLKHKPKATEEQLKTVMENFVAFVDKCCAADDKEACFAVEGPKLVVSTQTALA
Chain of Large T antigen (P03070 whole entry): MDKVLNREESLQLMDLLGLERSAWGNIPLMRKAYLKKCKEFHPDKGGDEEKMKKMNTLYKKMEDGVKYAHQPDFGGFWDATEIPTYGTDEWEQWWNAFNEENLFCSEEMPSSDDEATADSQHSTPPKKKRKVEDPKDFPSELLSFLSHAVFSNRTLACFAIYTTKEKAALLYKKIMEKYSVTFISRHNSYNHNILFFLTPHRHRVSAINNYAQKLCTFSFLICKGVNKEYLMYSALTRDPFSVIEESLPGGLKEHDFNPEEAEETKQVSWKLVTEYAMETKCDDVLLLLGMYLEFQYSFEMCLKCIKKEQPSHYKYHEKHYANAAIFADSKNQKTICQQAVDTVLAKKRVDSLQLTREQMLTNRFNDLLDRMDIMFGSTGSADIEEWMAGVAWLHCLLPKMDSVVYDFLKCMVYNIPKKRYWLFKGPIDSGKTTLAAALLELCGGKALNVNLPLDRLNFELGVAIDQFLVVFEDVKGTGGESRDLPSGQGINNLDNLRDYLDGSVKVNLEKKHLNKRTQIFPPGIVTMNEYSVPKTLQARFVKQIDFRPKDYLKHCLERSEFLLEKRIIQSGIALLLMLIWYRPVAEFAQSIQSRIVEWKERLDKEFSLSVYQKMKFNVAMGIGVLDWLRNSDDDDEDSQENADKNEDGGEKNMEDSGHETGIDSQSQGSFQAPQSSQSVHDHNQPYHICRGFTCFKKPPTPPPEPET

Which results are given for `COc1ccc(-c2cc(C(F)(F)F)nc(NC3CCCC3)n2)cc1OC`?
Ki [1]: > 66.7 µM (inactive); AC50 [2]: 20 µM (inconclusive)

For `O=C(Nc1ccc(Cl)cc1)N1CCC(c2ccccc2)C1` (configuration not stated), which IC50 [3] is on record?
Its IC50 is > 80 µM (inactive).

Which IC50 [4] does the source give for `CCc1ccccc1NC(=O)NNC(=O)c1ccc2ccccc2c1O` here?
Its IC50 is > 94.1 µM (inactive).

What does the source list for `O=C(NC1CCCC1)c1sc(=S)n2c1[nH]c(=O)c1ccccc12`?
IC50 [5]: 35 µM (active); IC50 [6]: > 100 µM (active); Ki [1]: 14.7 µM (active)

What does the source list for `NCCc1nc(-c2ccccc2)cs1`?
IC50 [7]: > 29.9 µM (inactive); EC50 [8]: 4.72 µM (active); IC50 [9]: > 29.9 µM (inactive); EC50 [10]: > 29.9 µM (inactive)

For `COCCCN1C(=O)C(O)=C(C(=O)c2ccc3c(c2)CC(C)O3)C1c1cccnc1` (configuration not stated), which Ki [1] is on record?
The Ki was > 66.7 µM (inactive).

Which IC50 [11] does the source give for `O=C(Nc1ccccc1)Nc1ccc(S(=O)(=O)N2CCCCC2)cc1` here?
The IC50 was 26.9 µM (inactive).

What about the IC50 [12] of the same molecule?
The IC50 was 47.5 µM (inactive).

With `O=C(Cn1nc(C(=O)O)c2ccccc2c1=O)c1c[nH]c2ccccc12` as the molecule, how does the IC50 [13] read?
The IC50 was > 79 µM (inactive).

What about the IC50 [3] of the same molecule?
The IC50 was > 80 µM (inactive).

What does the source list for `CCOc1ccc(CCN2C(=S)N([C@@H](Cc3ccc(O)cc3)CN3CCC[C@@H]3CN3C(=S)NC[C@@H]3CC(C)C)C[C@@H]2Cc2ccccc2)cc1`?
IC50 [14]: > 69.5 µM (inactive); IC50 [15]: > 69.5 µM (inactive)

Which IC50 [7] does the source give for `S=C1SCN(CCc2ccccc2)CN1CCc1ccccc1` here?
Its IC50 is > 29.9 µM (inactive).

What about the EC50 [8] of the same molecule?
The EC50 was 2.11 µM (active).

What about the IC50 [9] of the same molecule?
The IC50 was 3.35 µM (active).

What about the EC50 [10] of the same molecule?
The EC50 was > 29.9 µM (inactive).
